Reference: patent US11999727B2 (Tango Therapeutics, Inc., priority 2020, dated 2024)

How the values were obtained:
[1] = tested on: HAP1 MTAP-deleted cell line; experiment: Viability assay, MTAP-deleted cell line; type: cell-based; details: Homo sapiens, HAP1, viability IC50, MTAP-deleted cell line; read-out: HAP1 MTAP deleted viability
From the text: Table 1 additionally indicates IC50 values in a viability assay for the MTAP-deleted cell line (column 10), indicating the effect of treatment with compound on cell survival.

[2] = target: T1, PRMT5 (Homo sapiens, UniProt O14744); experiment: PRMT5 biochemical IC50 assay with no cofactor; details: PRMT5, no cofactor; read-out: No Cofactor/rel IC50
T1 construct: purchased Viva (custom protein)
From the text: Table 1 indicates IC50 values (μM) against PRMT5 for exemplary compounds in the presence of SAM as cofactor, with no cofactor, and with MTA as cofactor, respectively (columns 4-6). […] Ki values can be calculated from the IC50 values as described in the Examples section. As detailed in the Examples section, for the assay performed in the presence of SAM, IC50=Ki×1.5 (Ki=IC50/1.5).

[3] = tested on: HAP1 MTAP-intact cell line; experiment: SDMA in-cell western assay, HAP1 MTAP-intact; type: cell-based; details: Homo sapiens, HAP1, SDMA in-cell western, HAP1 MTAP-intact; read-out: MTAP HAP1 intact IC50
Outline: (§1)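 IC50 values come from SDMA signal quantified by in-cell western in two HAP1 lines, one with native MTAP levels and one lacking MTAP.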

[4] = target: T1, PRMT5; experiment: PRMT5 biochemical IC50 assay with MTA as cofactor; details: PRMT5, MTA as cofactor; read-out: MTA IC50
[5] = tested on: HAP1 MTAP-deleted cell line; experiment: SDMA in-cell western assay, HAP1 MTAP-deleted; type: cell-based; details: for IC50: Homo sapiens, HAP1, SDMA in-cell western, HAP1 MTAP-deleted, read-out: HAP 1 MTAP deleted IC50; for MTAP intact/deleted ratio: IC50 ratio HAP1 MTAP-intact / HAP1 MTAP-deleted, SDMA in-cell western
Outline: as §1

[6] = target: T1, PRMT5; experiment: PRMT5 biochemical IC50 assay with SAM as cofactor; details: PRMT5, SAM as cofactor; read-out: SAM IC50

T1 sequence (O14744 whole entry): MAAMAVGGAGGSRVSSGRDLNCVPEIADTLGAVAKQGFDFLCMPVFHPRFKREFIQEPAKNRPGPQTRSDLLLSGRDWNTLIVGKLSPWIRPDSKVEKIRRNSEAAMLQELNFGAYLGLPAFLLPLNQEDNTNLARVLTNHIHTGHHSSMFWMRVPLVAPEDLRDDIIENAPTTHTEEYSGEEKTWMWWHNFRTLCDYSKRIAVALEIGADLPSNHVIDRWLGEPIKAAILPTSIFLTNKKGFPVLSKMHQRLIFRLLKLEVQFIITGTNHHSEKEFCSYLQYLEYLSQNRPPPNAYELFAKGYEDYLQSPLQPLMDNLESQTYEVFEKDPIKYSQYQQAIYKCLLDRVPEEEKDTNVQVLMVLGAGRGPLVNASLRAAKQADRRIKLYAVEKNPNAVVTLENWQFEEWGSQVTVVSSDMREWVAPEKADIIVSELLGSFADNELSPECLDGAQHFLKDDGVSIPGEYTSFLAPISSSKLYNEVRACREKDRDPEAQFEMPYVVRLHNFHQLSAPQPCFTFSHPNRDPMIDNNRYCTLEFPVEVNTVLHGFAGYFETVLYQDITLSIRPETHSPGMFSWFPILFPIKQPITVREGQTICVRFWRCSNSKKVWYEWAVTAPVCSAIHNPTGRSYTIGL
T1 sequence (Q9BQA1 whole entry partner): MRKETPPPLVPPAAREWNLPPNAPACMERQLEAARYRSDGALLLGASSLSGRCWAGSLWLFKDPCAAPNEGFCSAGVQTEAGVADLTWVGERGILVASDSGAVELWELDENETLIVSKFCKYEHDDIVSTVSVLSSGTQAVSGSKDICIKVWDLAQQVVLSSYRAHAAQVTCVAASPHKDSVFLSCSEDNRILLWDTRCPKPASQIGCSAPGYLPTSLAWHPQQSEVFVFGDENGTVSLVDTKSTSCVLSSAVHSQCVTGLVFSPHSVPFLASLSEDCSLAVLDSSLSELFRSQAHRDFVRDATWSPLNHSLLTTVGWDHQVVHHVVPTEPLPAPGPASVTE

Structure (SMILES)	IC50 [1]	IC50 [2]	IC50 [3]	IC50 [4]	IC50 [5]	MTAP intact/deleted ratio [5]	IC50 [6]
COc1cc([C@@H]2CC[C@@H](C)CN2C(=O)C(=O)Nc2cncc(C(N)=O)c2)ccn1 (single isomer, unassigned) [Compound 532]	< 1000 nM	< 50 nM	> 1000 nM	< 50 nM	< 100 nM	A (an IC50 ratio greater than or equal to 10 fold)	50 to 500 nM
COc1cc([C@H]2CC[C@H](C)CN2C(=O)C(=O)Nc2cncc(C(N)=O)c2)ccn1 (single isomer, unassigned) [Compound 533]	> 10000 nM	> 500 nM	> 1000 nM	> 500 nM	> 1000 nM	C (an IC50 ratio of less than 3 fold)	> 500 nM
Cc1cc([C@H]2CC[C@H](C)CN2C(=O)C(=O)Nc2cncc(C(N)=O)c2)ccn1 (single isomer, unassigned) [Compound 534]	1000 to 10000 nM	50 to 500 nM	> 1000 nM	< 50 nM	100 to 1000 nM	A (an IC50 ratio greater than or equal to 10 fold)	50 to 500 nM
Cc1cc(NC(=O)C(=O)N2CCCC[C@@H]2c2ccc3[nH]ncc3c2)cnc1N (single isomer, unassigned) [Compound 535]	> 10000 nM	> 500 nM	> 1000 nM	> 500 nM	> 1000 nM	B (an IC50 ratio greater than or equal to 3 fold but lower than 10 fold)	> 500 nM
COc1ncc(NC(=O)C(=O)N2C[C@@H](C)CC[C@@H]2c2cnc3[nH]ncc3c2)cc1C(N)=O (single isomer, unassigned) [Compound 537]	> 10000 nM	> 500 nM	> 1000 nM	> 500 nM	> 1000 nM	C (an IC50 ratio of less than 3 fold)	> 500 nM
COc1cc([C@H]2CC[C@H](C)CN2C(=O)C(=O)Nc2cnc(N)c(C)c2)ccn1 (single isomer, unassigned) [Compound 538]	> 10000 nM	> 500 nM	> 1000 nM	> 500 nM	> 1000 nM	B (an IC50 ratio greater than or equal to 3 fold but lower than 10 fold)	> 500 nM
C[C@H]1CC[C@H](c2ccncc2)N(C(=O)C(=O)Nc2cncc(C(N)=O)c2)C1 (single isomer, unassigned) [Compound 539, 5-(2-(5-methyl-2-(pyridin-4-yl)piperidin-1-yl)-2-oxoacetamido)nicotinamide]	1000 to 10000 nM	50 to 500 nM	> 1000 nM	< 50 nM	< 100 nM	A (an IC50 ratio greater than or equal to 10 fold)	50 to 500 nM
C[C@@H]1CC[C@@H](c2ccncc2)N(C(=O)C(=O)Nc2cncc(C(N)=O)c2)C1 (single isomer, unassigned) [Compound 544, 5-(2-(5-methyl-2-(pyridin-4-yl)piperidin-1-yl)-2-oxoacetamido)nicotinamide]	> 10000 nM	> 500 nM	> 1000 nM	> 500 nM	> 1000 nM	C (an IC50 ratio of less than 3 fold)	> 500 nM
COc1cc([C@@H]2CC[C@@H](C)CN2C(=O)C(=O)Nc2cnc(N)c(C)c2)ccn1 (single isomer, unassigned) [Compound 545]	< 1000 nM	< 50 nM	100 to 1000 nM	< 50 nM	< 100 nM	B (an IC50 ratio greater than or equal to 3 fold but lower than 10 fold)	50 to 500 nM
COc1ncc(NC(=O)C(=O)N2C[C@H](C)CC[C@H]2c2cnc3[nH]ncc3c2)cc1C(N)=O (single isomer, unassigned) [Compound 546]	1000 to 10000 nM	50 to 500 nM	> 1000 nM	< 50 nM	100 to 1000 nM	A (an IC50 ratio greater than or equal to 10 fold)	50 to 500 nM
CC[C@H]1CC[C@H](c2ccccc2)N(C(=O)C(=O)Nc2cncc(C(N)=O)c2)C1 (single isomer, unassigned) [Compound 547]	1000 to 10000 nM	50 to 500 nM	> 1000 nM	< 50 nM	< 100 nM	A (an IC50 ratio greater than or equal to 10 fold)	50 to 500 nM
Cc1cc(NC(=O)C(=O)N2C[C@H](C)CC[C@H]2c2ccc(C(F)(F)F)cc2)cnc1N (single isomer, unassigned) [Compound 548]	< 1000 nM	50 to 500 nM	< 100 nM	< 50 nM	< 100 nM	C (an IC50 ratio of less than 3 fold)	50 to 500 nM
Cc1cc(NC(=O)C(=O)N2C[C@H](C)CC[C@H]2c2cnc3[nH]ncc3c2)cnc1N (single isomer, unassigned) [Compound 549]	1000 to 10000 nM	50 to 500 nM	100 to 1000 nM	< 50 nM	< 100 nM	A (an IC50 ratio greater than or equal to 10 fold)	50 to 500 nM
C[C@@H]1CC[C@@H](c2cnc3[nH]ncc3c2)N(C(=O)C(=O)Nc2cncc(C(N)=O)c2)C1 (single isomer, unassigned) [Compound 550]	> 10000 nM	> 500 nM	> 1000 nM	> 500 nM	> 1000 nM	C (an IC50 ratio of less than 3 fold)	> 500 nM
Cc1cc([C@H]2CC[C@H](C)CN2C(=O)C(=O)Nc2cnc(N)c(C)c2)ccc1O (single isomer, unassigned) [Compound 551]	> 10000 nM	> 500 nM	> 1000 nM	> 500 nM	> 1000 nM	C (an IC50 ratio of less than 3 fold)	> 500 nM
C[C@H]1CC[C@H](c2cc3cn[nH]c3cc2F)N(C(=O)C(=O)Nc2cncc(C(N)=O)c2)C1 (single isomer, unassigned) [Compound 553]	1000 to 10000 nM	50 to 500 nM	> 1000 nM	< 50 nM	100 to 1000 nM	A (an IC50 ratio greater than or equal to 10 fold)	50 to 500 nM
Cc1cc(NC(=O)C(=O)N2C[C@H](C)CC[C@H]2[C@H]2CCC[C@H](O)C2)cnc1N (single isomer, unassigned) [Compound 559]	1000 to 10000 nM	50 to 500 nM	> 1000 nM	< 50 nM	100 to 1000 nM	A (an IC50 ratio greater than or equal to 10 fold)	50 to 500 nM
CC(=O)N[C@H]1C[C@H]([C@@H]2CC[C@H](C)CN2C(=O)C(=O)Nc2cnc(N)c(C)c2)C1 (single isomer, unassigned) [Compound 562]	> 10000 nM	> 500 nM	> 1000 nM	> 500 nM	> 1000 nM	C (an IC50 ratio of less than 3 fold)	> 500 nM
CC(=O)N[C@H]1C[C@H]([C@H]2CC[C@H](C)CN2C(=O)C(=O)Nc2cnc(N)c(C)c2)C1 (single isomer, unassigned) [Compound 563]	> 10000 nM	> 500 nM	> 1000 nM	> 500 nM	> 1000 nM	C (an IC50 ratio of less than 3 fold)	> 500 nM
CC(=O)N[C@H]1C[C@H]([C@H]2CC[C@@H](C)CN2C(=O)C(=O)Nc2cnc(N)c(C)c2)C1 (single isomer, unassigned) [Compound 564]	> 10000 nM	> 500 nM	> 1000 nM	50 to 500 nM	> 1000 nM	B (an IC50 ratio greater than or equal to 3 fold but lower than 10 fold)	50 to 500 nM
CC[C@@H]1CC[C@H](c2ccccc2)N(C(=O)C(=O)Nc2cncc(C(N)=O)c2)C1 (single isomer, unassigned) [Compound 565]	> 10000 nM	> 500 nM	> 1000 nM	50 to 500 nM	100 to 1000 nM	A (an IC50 ratio greater than or equal to 10 fold)	50 to 500 nM
Cc1cc(NC(=O)C(=O)N2C[C@@H](C)CC[C@@H]2[C@H]2CCC[C@@H](O)C2)cnc1N (single isomer, unassigned) [Compound 566]	1000 to 10000 nM	50 to 500 nM	> 1000 nM	50 to 500 nM	100 to 1000 nM	A (an IC50 ratio greater than or equal to 10 fold)	> 500 nM
